US5580869A, “1N substituted pyrazino[2,3-c]-1,2,6-thiadiazine 2,2-dioxides” (Prodesfarma, S.A., priority 1992, dated 1996)
Read-outs that look alike come from different tables or passages of the source.

Legend:
rats = experiment: Diuretic and saluretic activity (urine volume and electrolyte excretion over 6 h), technique of Lipschits et al.; type: in vivo; conditions: rat; for response vs control in vivo at 25 mg/kg: 25 mg/kg po; for response vs control in vivo at 20 mg/kg: 20 mg/kg po; for response vs control in vivo at 10 mg/kg: 10 mg/kg po; for response vs control in vivo at 40 mg/kg: 40 mg/kg po
Experimental: The synthesized compounds were, therefore, subjected a pharmacological screening to evaluate a possible diuretic and salt excreting activity. Thus, an acute dose of each of the products of synthesis (20 or 25 mg/kg) was administered to rats and the amount of urine and the excretion of electrolytes was measured, following the technique described by Lipschits et al., with certain modifications (J. Pharmacol. Exp.Ther. 1943-79; 97-110).
The volume (ml/kg/6 h), the pH and the excretion of sodium, potassium and chloride ions (mEq/kg/6 h) were determined on the urine quantitatively collected over 6 hours, using triamterene and hydrochlorothiazide as reference diuretics.

[1] = Mortality rate in the mouse after a single oral dose of 1600 mg/kg; conditions: in vivo, single oral dose 1600 mg/kg
Experimental: Likewise, to complete the superficial pharmacological profile, a check was made of the mortality rate in the mouse after oral administration of a single dose of 1600 mg/kg of each of the synthesized compounds (See Table 1).

[2] = test system: isolated guinea pig trachea; experiment: In vitro trachea relaxing activity (spontaneous tone in isolated trachea, method of Luduena); type: cell-based; conditions: Cavia porcellus, relative to maximum relaxation by noradrenaline 0.3 mcg/ml; for activity at 30 µg/mL: 30 mcg/ml
Experimental: The platelet antiaggregation activity was determined in vitro using platelet rich rabbit plasma and arachidonic acid (50 mcg/ml) as aggregation inducing agent. The results are given for tracheal relaxation as percentage inhibition of the tracheal tone relative to the maximum relaxation induced by noradrenaline (0.3 mcg/ml) and for the platelet aggregation as a percentage of the maximum effect observed with the proaggregation agent.

[3] = test system: histamine induced bronchospasm in anaesthetized guinea pig; experiment: In vivo bronchodilatory effect, histamine induced bronchospasm (Konzett and Rossler); conditions: area under the curve relative to theophylline
Experimental: Konzett and Rosslet's technique was used for evaluation, with the capacity of the tested products, when administered intraduodenally at dose levels of 25 and 100 mg/kg, to antagonize a histamine induced bronchospasm (7.5 mcg/ml) in anaesthetized guinea pig being determined. Theophylline (25 mg/kg, i.d.) was used as reference drug, with the areas under the curve defined by the bronchospasm inhibition percentages and the post-administration time being compared.

[4] = (N) = not statistically significant vs control, read-out: Cl excretion, treated group/control group ratio
[5] = (N) = not statistically significant vs control, read-out: K excretion, treated group/control group ratio
[6] = (N) = not statistically significant vs control, read-out: Na excretion, treated group/control group ratio
[7] = (N) = not statistically significant vs control, read-out: Volume urine, treated group/control group ratio
[8] = (N) = not statistically significant vs control, read-out: Na/K
[9] = read-out: Cl excretion, treated group/control group ratio
[10] = read-out: K excretion, treated group/control group ratio
[11] = read-out: Na excretion, treated group/control group ratio
[12] = read-out: Volume urine, treated group/control group ratio

Row | Compound | response vs control in vivo at 25 mg/kg (rats; [4]) | response vs control in vivo at 25 mg/kg (rats; [5]) | response vs control in vivo at 25 mg/kg (rats; [6]) | response vs control in vivo at 25 mg/kg (rats; [7]) | mortality [1] | response vs control in vivo at 20 mg/kg (rats; [4]) | response vs control in vivo at 20 mg/kg (rats; [5]) | response vs control in vivo at 20 mg/kg (rats; [6]) | response vs control in vivo at 20 mg/kg (rats; [8]) | response vs control in vivo at 20 mg/kg (rats; [7]) | activity at 30 µg/mL [2] | also measured
1 | CCc1nc2c(nc1C)C(N)=NS(=O)(=O)N2CC [1,7-diethyl-6-methyl, 4-amino-1,7-diethyl-6-methylpyrazino[2,3-c]-1,2,6-thiadiazine 2,2-dioxide] | 787% | 179% | 823% | 197% | 37.5% |  |  |  |  |  |  | response vs control in vivo at 25 mg/kg (rats; read-out: Na/K): 460%
2 | CCc1nc2c(nc1C)C(N)=NS(=O)(=O)N2C [7-ethyl-1,6-dimethyl, 4-amino-7-ethyl-1,6-dimethylpyrazino[2,3-c]-1,2,6-thiadiazine 2,2-dioxide] |  |  |  |  | 0% | 471% | 177% | 385% | 218% | 152% | 95% | 
3 | CCc1nc2c(nc1C)N(CC)S(=O)(=O)N=C2N [1,6-diethyl-7-methyl, 4-amino-1,6-diethyl-7-methylpyrazino[2,3-c]-1,2,6-thiadiazine 2,2-dioxide] |  |  |  |  |  | 89% | 91% | 56% | 62% | 104% | 95% | 
4 | CCCN1c2nc(C)c(C)nc2C(N)=NS1(=O)=O [6,7-dimethyl-1-propyl, 4-amino-6,7-dimethyl-1-propylpyrazino[2,3-c]-1,2,6-thiadiazine 2,2-dioxide] |  |  |  |  | 60% | 593% | 197% | 609% | 309% | 175% |  | 
5 | Nc1cc(-c2ccncc2)c[nH]c1=O [Amrinone, reference compound] |  |  |  |  |  |  |  |  |  |  |  | activity at 3 µg/mL ([2]; 3 mcg/ml): 65%
6 | CCN1c2nc(C)c(Br)nc2C(N)=NS1(=O)=O [6-bromo-1-ethyl-7-methyl, 4-amino-6-bromo-1-ethyl-7-methylpyrazino[2,3-c]-1,2,6-thiadiazine 2,2-dioxide] |  |  |  |  |  |  |  |  |  |  | 88% | 
7 | Cn1c(=O)c2[nH]cnc2n(C)c1=O [Theophylline, reference compound] |  |  |  |  |  |  |  |  |  |  | 60% | Bronchodilatory activity (area ratio) ([3]; 25 mg/kg i.d.): 1; Bronchodilatory activity (area ratio) ([3]; 100 mg/kg i.d.): 1
8 | CCN1c2nc(C(F)(F)F)c(C(F)(F)F)nc2C(N)=NS1(=O)=O [1-ethyl-6,7-bis(trifluoromethyl), 4-amino-1-ethyl-6,7-bis(trifluoromethyl)pyrazino[2,3-c]-1,2,6-thiadiazine 2,2-dioxide] | 112% | 99% | 129% | 128% | 100% |  |  |  |  |  |  | response vs control in vivo at 25 mg/kg (rats; read-out: Na/K): 130%
9 | NS(=O)(=O)c1cc2c(cc1Cl)NCNS2(=O)=O [Hydrochlorothiazide, reference compound] |  |  |  |  |  |  |  |  |  |  |  | response vs control in vivo at 10 mg/kg (rats; [9]): 577%; response vs control in vivo at 10 mg/kg (rats; [10]): 217%; response vs control in vivo at 10 mg/kg (rats; [11]): 668%; response vs control in vivo at 10 mg/kg (rats; read-out: Na/K): 308%; response vs control in vivo at 10 mg/kg (rats; [12]): 166%; response vs control in vivo at 40 mg/kg (rats; [9]): 626%; response vs control in vivo at 40 mg/kg (rats; [10]): 265%; response vs control in vivo at 40 mg/kg (rats; [11]): 773%; response vs control in vivo at 40 mg/kg (rats; read-out: Na/K): 292%; response vs control in vivo at 40 mg/kg (rats; [12]): 179%
10 | CCc1nc2c(nc1CC)N(CC)S(=O)(=O)N=C2N [1,6,7-triethyl, 4-amino-1,6,7-triethylpyrazino[2,3-c]-1,2,6-thiadiazine 2,2-dioxide] |  |  |  |  | 50% | 216% | 127% | 198% | 156% | 133% |  | 
11 | CCN1c2nc(-c3ccccc3)cnc2C(N)=NS1(=O)=O [1-ethyl-7-phenyl, 4-amino-1-ethyl-7-phenylpyrazino[2,3-c]-1,2,6-thiadiazine 2,2-dioxide] |  |  |  |  |  | 136% | 140% | 131% | 94% | 121% | 95% | 
12 | CCCc1nc2c(nc1C)C(N)=NS(=O)(=O)N2CC [1-ethyl-6-methyl-7-propyl, 4-amino-1-ethyl-6-methyl-7-propylpyrazino[2,3-c]-1,2,6-thiadiazine 2,2-dioxide] |  |  |  |  | 50% | 176% | 123% | 156% | 127% | 109% |  | 
13 | CCc1nc2c(nc1C)C(NN)=NS(=O)(=O)N2CC |  |  |  |  |  |  |  |  |  |  | 72% | 
14 | Cc1nc2c(nc1C)N(CCO)S(=O)(=O)N=C2N [1-(2-hydroxyethyl)-6,7-dimethyl, 4-amino-1-(2-hydroxyethyl)-6,7-dimethylpyrazino[2,3-c]-1,2,6-thiadiazine 2,2-dioxide] | 141% | 189% | 203% | 106% | 0% |  |  |  |  |  |  | response vs control in vivo at 25 mg/kg (rats; read-out: Na/K): 107%
15 | CCOC(=O)CN1c2nc(-c3ccccc3)cnc2C(N)=NS1(=O)=O [1-[(2-ethoxycarbonyl)-methyl]-7-phenyl, 4-amino-1-[(ethoxycarbonyl)methyl]-7-phenylpyrazino[2,3-c]-1,2,7-thiadiazine 2,2-dioxide] |  |  |  |  |  |  |  |  |  |  | 72% | 
16 | Nc1nc(N)c2nc(-c3ccccc3)c(N)nc2n1 [Triamterene, reference compound] | 260% | 36% | 596% | 165% |  | 237% | 34% | 579% |  | 145% |  | 
17 | CCc1nc2c(nc1C)C(NC)=NS(=O)(=O)N2CC [1,7-diethyl-4-(methylamino)-6-methyl, 1,7-diethyl-4-(methylamino)-6-methylpyrazino[2,3-c]-1,2,6-thiadiazine 2,2-dioxide] |  |  |  |  |  | 424% | 155% | 344% | 156% | 139% | 75% | 
18 | CCCN1c2nc(CC)c(C)nc2C(N)=NS1(=O)=O [1-ethyl-6-methyl-1-propyl, 4-amino-7-ethyl-6-methyl-1-propylpyrazino[2,3-c]-1,2,6-thiadiazine 2,2-dioxide] |  |  |  |  | 40% | 530% | 172% | 502% | 292% | 154% |  | 
19 | Cc1nc2c(nc1C)N(CCN(C(C)C)C(C)C)S(=O)(=O)N=C2N [4-amino-1-[2-(N,N-diisopropylamino)ethyl]-6,7-dimethylpyrazino[2,3-c]-1,2,6-thiadiazine 2,2-dioxide] | 156% | 94% | 193% | 84% | 62% |  |  |  |  |  |  | response vs control in vivo at 25 mg/kg (rats; read-out: Na/K): 205%
20 | Cc1nc2c(nc1C)N(CCN1CCOCC1)S(=O)(=O)N=C2N [1-(2-morpholinoethyl)-6,7-dimethyl, 4-amino-1-(2-morpholinoethyl)-6,7-dimethylpyrazino[2,3-c]-1,2,6-thiadiazine 2,2-dioxide] | 102% | 112% | 246% | 108% | 85% |  |  |  |  |  |  | response vs control in vivo at 25 mg/kg (rats; read-out: Na/K): 220%
